# Source: ChEMBL document CHEMBL2073961, “Reduced hepatic uptake and intestinal excretion of organic cations in mice with a targeted disruption of the organic cation transporter 1 (Oct1 [Slc22a1]) gene” (Mol Cell Biol, 2001)
# Biological target: T1, Solute carrier family 22 member 1 (Mus musculus, UniProt O08966)
# T1 sequence (O08966 whole entry): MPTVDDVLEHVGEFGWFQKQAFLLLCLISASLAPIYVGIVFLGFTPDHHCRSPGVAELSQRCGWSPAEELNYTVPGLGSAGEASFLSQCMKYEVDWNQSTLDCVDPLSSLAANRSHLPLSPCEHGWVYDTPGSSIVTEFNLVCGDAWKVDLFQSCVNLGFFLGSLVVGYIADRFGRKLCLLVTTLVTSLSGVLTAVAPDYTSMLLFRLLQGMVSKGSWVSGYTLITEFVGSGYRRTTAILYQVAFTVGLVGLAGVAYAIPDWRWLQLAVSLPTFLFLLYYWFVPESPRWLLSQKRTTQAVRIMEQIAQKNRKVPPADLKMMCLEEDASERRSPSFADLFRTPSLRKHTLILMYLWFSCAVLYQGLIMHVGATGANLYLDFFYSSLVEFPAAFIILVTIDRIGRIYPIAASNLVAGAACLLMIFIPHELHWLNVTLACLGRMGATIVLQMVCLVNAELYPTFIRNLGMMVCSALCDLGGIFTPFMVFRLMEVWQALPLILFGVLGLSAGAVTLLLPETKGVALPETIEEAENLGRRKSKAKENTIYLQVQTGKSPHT
# Experiment: TP_TRANSPORTER: decrease in liver concentration in Oct1 -/- mouse
# Assay type: functional, organism-based
# Conditions: in vivo
row,Activity,SMILES
1,substrate [+],N=C(N)NCc1cccc(I)c1 [IOBENGUANE]
2,substrate [+],CC[N+](CC)(CC)CC [TETRYLAMMONIUM]

row,SMILES,Activity
1,C[n+]1ccc(-c2ccccc2)cc1,substrate [+]
